Holding throughout (format): in vitro ADME
Series [1] is described as follows: Predicted hepatic clearance, rat hepatic microsomes. The procedure:
Intrinsic clearance: Human or rat hepatic microsomes (0.5 mg/mL) and 1 µM test compound were incubated in 100 mM potassium phosphate pH 7.4 buffer with 3 mM MgCl2 at 37 °C with constant shaking. After a 5 min preincubation, the reaction was initiated by the addition of NADPH (1 mM). At selected time intervals (0, 3, 7, 15, 25, and 45 min), aliquots were taken and subsequently placed into a 96-well plate containing cold acetonitrile with internal standard (50 ng/mL carbamazepine). Plates were then centrifuged at 3000 rcf (4 °C) for 10 min, and the supernatant was transferred to a separate 96-well plate and diluted 1:1 with water for LC/MS/MS analysis. The in vitro half-life ( 1/2, min, Eq. 1), intrinsic clearance (CLint, mL/min/kg, Eq. 2), and subsequent predicted hepatic clearance (CLhep, mL/min/kg, Eq. 3) was determined employing the […]
where k represents the slope from linear regression analysis of the natural log percent remaining of a test compound as a function of incubation time […]
(2) CLint = in vitroT1/2 x mg microsomes x gram liver x kg body wt ascale-up factors: of 20 (human) or 45 (rat) […]
where Qh (hepatic blood flow, mL/min/kg) is 21 (human) or 70 (rat).
LC/MS/MS Bioanalysis of Samples from Plasma Protein Binding and Intrinsic Clearance […]
Samples were analyzed on a Thermo Electron TSQ Quantum Ultra triple quad mass spectrometer (San Jose, CA) via electrospray ionization (ESI) with two Themo Electron Accella pumps (San Jose, CA), and a Leap Technologies CTC PAL autosampler (Carrboro, NC). Analytes were separated by gradient elution on a dual column system with two Thermo Hypersil Gold (2.1 x 30 mm, 1.9 µm) columns (San Jose, CA) thermostated at 40 °C. HPLC mobile phase A was 0.1% formic acid in water and mobile phase B was 0.1% formic acid in acetonitrile. The gradient started […]
for 0.2 min; returned to 10% B in 0.1 min. The total run time was 1.3 min and the HPLC flow rate was 0.8 mL/min. […]

A short description of series [2]: Plasma protein binding, human. The settings on record: pH 7.4, read-out: fu,plasma human. The procedure:
(§1) Plasma protein binding and Brain homogenate binding: Determination of fraction unbound (f u) in plasma was conducted in vitro via equilibrium dialysis using HTDialysis (HTD) membrane plates. The top half of the plate was filled with 100 uL of Dubelco’s Phosphate Buffered Saline, pH 7.4 (DPBS). Compounds were diluted into plasma from each species (5 µM final concentration), which was aliquoted in triplicate to the ‘bottom half’ of the prepared HTD plate wells. The HTD plate was sealed and incubated for 6 hours at 37 °C. Following incubation, each well (both top and bottom halves) were transferred (20 µL) to the corresponding wells of a 96-shallow-well (V-bottom) plate. The daughter plates were then matrix-matched (DPBS side wells received equal volume of plasma, and plasma side wells received equal volume of DPBS), and extraction solution (120 µL; acetonitrile containing 50 nM carbamazepine as IS) was added to all wells of both daughter plates to precipitate protein and extract test article. The plates were then sealed and centrifuged (3500 rcf) for 10 minutes at ambient temperature. Supernatant (60 µL) from each well of the daughter plates was then transferred to the corresponding wells of new daughter plates (96-shallow-well, V bottom) containing water (Milli-Q, 60 µL/well), and the plates were sealed in preparation for LC-MS/MS analysis (see LC-MS/MS analysis method below).
(§2) The unbound fraction (f u) was calculated following the equation below, and mean values for each species were calculated from 3 replicates. […]
(§3) Fraction unbound for both plasma and brain samples was determined using Equation 4.
(§4) Equation 4 Determination of fraction unbound in plasma.

Series [3] has as its system T1, P-gp.
T1 construct: host or cells: MDR1-MDCK cell monolayers
In words: MDCK-MDR1 P-gp efflux and permeability. On the set-up: efflux ratio at 2 h / Papp at 2 h: dose or concentration left out as unconfirmed. To be noted: for P-gp ER / efflux ratio at 2 h: MDCK-MDR1 efflux ratio; for Papp at 2 h / efflux ratio at 2 h: dog; for Papp at 2 h: MDCK-MDR1; for efflux ratio at 2 h: read-out: P-gp ER. The procedure:
In-vitro determination of blood-brain barrier penetration potential
Blood-brain barrier penetration was determined using MDR1-MDCK cell monolayers by Absorption Systems, following their protocol. In short, compounds were incubated […] final […]
concentration on one side of the cell monolayer for 2 hours. Compounds concentration on either side of the monolayer was determined by LC-MS/MS and apparent permeability and efflux ratio

Series [4] can be described thus: Plasma protein binding, rat. The settings on record: pH 7.4, read-out: fu,plasma rat. The procedure: as §1, §2, §3, §4

`Cn1ccc(-c2ccc(Cc3cc(C(=O)NC4CCOCC4)nc4ccn(C)c34)cc2)n1` [compound 11]: the “Predicted CLhep, rat” value in series [1] is reported as 38 mL/min/kg. Also, the fraction unbound at 6 h, 5 µM in series [2] was 0.016. For the same molecule, in series [3], the “P-gp ER” value was 3.5, the Papp at 2 h came to 12.8 ×10⁻⁶ cm/s and the efflux ratio at 2 h turned out to be 3.5. In series [4], the fraction unbound at 6 h, 5 µM was determined as 0.04.
Consider `Cn1ccc(-c2ccc(Cc3cc(C(=O)NC4CCOCC4)nc4ccsc34)cc2)n1` [compound 12], for which, in series [1], the “Predicted CLhep, rat” value is 33 mL/min/kg. The fraction unbound at 6 h, 5 µM in series [2] was found to be 0.005. Further, in series [3], the “P-gp ER” value amounted to 0.8, the Papp at 2 h amounted to 26.8 ×10⁻⁶ cm/s and the efflux ratio at 2 h was found to be 0.8. The fraction unbound at 6 h, 5 µM in series [4] was found to be 0.015.
For `Cn1ccc2nc(C(=O)NC3CCOCC3)cc(Cc3ccc(-c4cc[nH]n4)cc3)c21` [compound 24], the “Predicted CLhep, rat” value in series [1] was 44 mL/min/kg. Moreover, the fraction unbound at 6 h, 5 µM in series [2] was 0.047. Further, in series [3], the Papp at 2 h was 2 ×10⁻⁶ cm/s and the efflux ratio at 2 h is 31.9. The fraction unbound at 6 h, 5 µM in series [4] worked out at 0.134.

The values above are taken from article PMC11413853, “Discovery of VU6007496: Challenges in the Development of an M1 Positive Allosteric Modulator Backup Candidate” (ACS Chemical Neuroscience, 2024).
